For one experiment, the system named is Arabidopsis plants. The following applies: nitrate addition to N-starved plants; cited from earlier work.
Experiment [1] relates to Arabidopsis thaliana. The experiment in a line: MOA1 biochemical (metabolite) profiling by LC-MS and GC-MS. The conditions noted are these: for stress related metabolites: within one hour after spraying.
The test system of another experiment is Magnaporthe grisea. Format: cell-based.
The test system of experiment [2] is Arabidopsis thaliana. The experiment in a line: MOA1 gene expression profiling (22,000 gene array). The following applies: 1 hr; for Regulated Genes Following Herbicide Treatment: Down / Regulated Genes Following Herbicide Treatment: Up: p < 0.5; for No. of Lethal Genes Altered: regulated genes compared to list of essential (lethal) genes.
The subject of experiment [3] is Arabidopsis thaliana plants. The experiment in a line: SOA1 phenotypic analysis of herbicide-treated plants (incl. MIC/Tmic). The following applies: for characteristic symptoms (morphological phenotype): herbicide-treated plants; for leafCurling, Dev. / leafTwisting, Dev. / leafWidth, Dev. / matureLeafAnthocyanins, Dev. / matureLeafChlorosis, Dev. / matureLeafNecrosis, Dev. / newLeafAnthocyanins, Dev. / newLeafChlorosis, Dev. / newLeafNecrosis, Dev. / pointedLeaves, Dev.: herbicide sprayed on 21-day plants, numeric value standardized to mock treated; for tMic, Dev.: score for time to full symptoms at minimum inhibitory concentration. Format: in vivo.

“Also recorded” adds a separate entry of the source.

For the compound `O=[N+]([O-])O` [Nitrate, nitrate], in the experiment on Arabidopsis plants, the “Nitrate Regulation of Glutamate synthetase gene” value is on record as “↑”, the “Nitrate Regulation of Glutamine synthetase (2) genes” value is “↑”, the “Nitrate Regulation of MADs Box (2) genes” value is “↓” and the “Nitrate Regulation of MYB transcription factor gene” value is recorded as “↑”. Also, in the experiment on Arabidopsis plants, the “Nitrate Regulation of Malate Dehydrogenase gene” value is “↑”, the “Nitrate Regulation of Nitrate transporter gene” value is “↑”, the “Nitrate Regulation of Phosphate transporter gene” value is “↑” and the “Nitrate Regulation of Transaldolase gene” value is reported as “↑”. In the experiment with Arabidopsis plants, the “Nitrate Regulation of Transketolase gene” value is “↑”.
With `CS(=O)(=O)c1cc(C(F)(F)F)ccc1C(=O)c1cnoc1C1CC1` [Isoxaflutole], in the experiment on Arabidopsis thaliana [1] (early time points), the “Alpha-tocopherol level relative to the control” value is listed as “not significantly changed”. Further, the “tyrosine and phenylalanine level relative to the control” value in the experiment with Arabidopsis thaliana [1] (metabolite data, early time points (1 hr)) is “up-regulated; also recorded: began to accumulate relative to the control after one hour”. In the experiment with Magnaporthe grisea (concentrations insufficient to inhibit growth), the “Growth of M. grisea in minimal plus tyrosine and minimal media” value is “inhibited in minimal plus tyrosine media, while growth in minimal media was unaffected”. Besides, in the experiment with Arabidopsis thaliana [2], the “alterations in the expression of genes of the homogentisate biosynthetic pathway” value is recorded as “not observed”, the “Regulated Genes Following Herbicide Treatment: Down” value amounted to 370 and the “No. of Lethal Genes Altered” value is listed as 15.
With `CCNc1nc(Cl)nc(NC(C)C)n1` [Atrazine], the “characteristic symptoms (morphological phenotype)” value in experiment [3] was “rapid and widespread leaf necrosis”.
With `CP(=O)(O)CCC(N)C(=O)O` (centres unmarked) [Glufosinate], the stress related metabolites result in the experiment with Arabidopsis thaliana [1] is “Only a few, if any”. The “Nitrogen source utilization by M. grisea” value with Magnaporthe grisea (in the presence of glufosinate) is “only able to utilize glutamine and glutamate as nitrogen sources”. Moreover, in the experiment on Arabidopsis thaliana [2], the “Regulated Genes Following Herbicide Treatment: Down” value was 54, the “Regulated Genes Following Herbicide Treatment: Up” value came to 296 and the “No. of Lethal Genes Altered” value amounted to 10. In experiment [3], the “leafCurling, Dev.” value came out at 2; the “leafTwisting, Dev.” value was found to be 1; the “leafWidth, Dev.” value is −2; the “matureLeafAnthocyanins, Dev.” value was found to be 0. Also, in experiment [3], the “matureLeafChlorosis, Dev.” value came to 3; the “matureLeafNecrosis, Dev.” value turned out to be 0; the “newLeafAnthocyanins, Dev.” value is 0; the “newLeafChlorosis, Dev.” value is given as 3. Also, in experiment [3], the “newLeafNecrosis, Dev.” value turned out to be 0; the “pointedLeaves, Dev.” value came to 1; the “characteristic symptoms (morphological phenotype)” value was “Chlorosis and leaf curling”; the “tMic, Dev.” value worked out at 1.
For `O=C(O)c1ccccc1C(=O)Nc1cccc2ccccc12` [Naptalam], in the experiment with Arabidopsis thaliana [2], the “Regulated Genes Following Herbicide Treatment: Down” value is on record as 47, the “Regulated Genes Following Herbicide Treatment: Up” value stood at 50 and the “No. of Lethal Genes Altered” value is given as 3.
Take `CCc1cnc(C2=NC(C)(C(C)C)C(=O)N2)c(C(=O)O)c1` (centres unmarked) [Imazethapyr]: the “characteristic symptoms (morphological phenotype)” value in experiment [3] is listed as “anthocyanin accumulation in the older leaves accompanied by chlorosis of the newly emerging leaves”.
In the case of `CC(C)C1(C)N=C(c2ncccc2C(=O)O)NC1=O` (centres unmarked) [Imazapyr], in the experiment with Arabidopsis thaliana [1], the stress related metabolites entry is on record as “Only a few, if any”. Further, the “characteristic symptoms (morphological phenotype)” value in experiment [3] is reported as “anthocyanin accumulation in the older leaves accompanied by chlorosis of the newly emerging leaves”.
As to `O=C(O)CNCP(=O)(O)O` [Glyphosate], the “tyrosine level relative to the control” value in the experiment on Arabidopsis thaliana [1] (after one hour) is recorded as “decreased”. Further, the “Growth of M. grisea, Tiers 3 and 4 media” value with Magnaporthe grisea is “nearly identical as compared to Unknown 4; also recorded: inhibited growth of M. grisea when nitrate, nitrite, or glutamate was provided as the sole nitrogen source”. In the experiment with Magnaporthe grisea (glyphosate at 1.0 mg/ml), the “Growth inhibition of M. grisea” value is reported as “remediated by inclusion of aromatic amino acids to the media”. Also, in experiment [3], the “leafCurling, Dev.” value was 0; the “leafTwisting, Dev.” value is 0; the “leafWidth, Dev.” value stood at 0; the “matureLeafAnthocyanins, Dev.” value is reported as 3. In experiment [3], the “matureLeafChlorosis, Dev.” value is on record as 1; the “matureLeafNecrosis, Dev.” value is 3; the “newLeafAnthocyanins, Dev.” value is 1; the “newLeafChlorosis, Dev.” value was found to be 2. Also, in experiment [3], the “newLeafNecrosis, Dev.” value was 0; the “pointedLeaves, Dev.” value is reported as 1; the “characteristic symptoms (morphological phenotype)” value is on record as “anthocyanin accumulation in the older leaves accompanied by chlorosis of the newly emerging leaves”; the “tMic, Dev.” value worked out at 2.
For the compound `CN(C)C(=O)Nc1ccc(Cl)c(Cl)c1` [Diuron], in experiment [3], the “leafCurling, Dev.” value stood at 1; the “leafTwisting, Dev.” value came to 0; the “leafWidth, Dev.” value is −2; the “matureLeafAnthocyanins, Dev.” value was found to be 0. Also, in experiment [3], the “matureLeafChlorosis, Dev.” value was 2; the “matureLeafNecrosis, Dev.” value is given as 4; the “newLeafAnthocyanins, Dev.” value is on record as 0; the “newLeafChlorosis, Dev.” value is given as 2. Moreover, in experiment [3], the “newLeafNecrosis, Dev.” value is recorded as 4; the “pointedLeaves, Dev.” value worked out at 1; the “characteristic symptoms (morphological phenotype)” value is “rapid and widespread leaf necrosis”; the “tMic, Dev.” value stood at 1.
On to `C[n+]1ccc(-c2cc[n+](C)cc2)cc1` [Paraquat], for which, in experiment [3], the “leafCurling, Dev.” value worked out at 2; the “leafTwisting, Dev.” value was 0; the “leafWidth, Dev.” value was −1; the “matureLeafAnthocyanins, Dev.” value turned out to be 0. In experiment [3], the “matureLeafChlorosis, Dev.” value is reported as 1; the “matureLeafNecrosis, Dev.” value is recorded as 4; the “newLeafAnthocyanins, Dev.” value was found to be 0; the “newLeafChlorosis, Dev.” value is reported as 1. Further, in experiment [3], the “newLeafNecrosis, Dev.” value stood at 4; the “pointedLeaves, Dev.” value is recorded as 1; the “characteristic symptoms (morphological phenotype)” value was “rapid and widespread leaf necrosis”; the “tMic, Dev.” value is 2.
For the compound `O=C(O)c1cc(Oc2ccc(C(F)(F)F)cc2Cl)ccc1[N+](=O)[O-]` [Acifluorfen], the “characteristic symptoms (morphological phenotype)” value in experiment [3] was “Necrotic leaf flecks”.
Regarding `O=C(O)COc1ccc(Cl)cc1Cl` [2,4-D], in experiment [3], the “leafCurling, Dev.” value is 1; the “leafTwisting, Dev.” value is 2; the “leafWidth, Dev.” value is −1; the “matureLeafAnthocyanins, Dev.” value worked out at 1. Besides, in experiment [3], the “matureLeafChlorosis, Dev.” value was determined as 2; the “matureLeafNecrosis, Dev.” value was 0; the “newLeafAnthocyanins, Dev.” value is 0; the “newLeafChlorosis, Dev.” value was 1. In experiment [3], the “newLeafNecrosis, Dev.” value is reported as 0; the “pointedLeaves, Dev.” value is 0; the “tMic, Dev.” value was 2. Further, the “Symptom Class” value in experiment [3] (phenotype class of three-week-old treated plants (FIG. 12)) was found to be 5.
In the case of `Nc1nc[nH]n1` [Amitrole], in experiment [3], the “characteristic symptoms (morphological phenotype)” value was “leaf bleaching and leaf enlargement”.
Take `c1cc[n+]2c(c1)-c1cccc[n+]1CC2` [Diquat]: in experiment [3], the “leafCurling, Dev.” value is on record as 2; the “leafTwisting, Dev.” value was determined as 0; the “leafWidth, Dev.” value is −2; the “matureLeafAnthocyanins, Dev.” value is given as 0. Also, in experiment [3], the “matureLeafChlorosis, Dev.” value is on record as 1; the “matureLeafNecrosis, Dev.” value turned out to be 4; the “newLeafAnthocyanins, Dev.” value came to 0; the “newLeafChlorosis, Dev.” value amounted to 1. In experiment [3], the “newLeafNecrosis, Dev.” value is 4; the “pointedLeaves, Dev.” value worked out at 1; the “characteristic symptoms (morphological phenotype)” value is “rapid and widespread leaf necrosis”; the “tMic, Dev.” value was 2.
As for `CC(C)N1C(=O)c2ccccc2NS1(=O)=O` [Bentazon], the “characteristic symptoms (morphological phenotype)” value in experiment [3] is “rapid and widespread leaf necrosis”.
Turning to `COC(=O)NS(=O)(=O)c1ccc(N)cc1` [Asulam], in the experiment on Arabidopsis thaliana [2], the “Regulated Genes Following Herbicide Treatment: Down” value is given as 7, the “Regulated Genes Following Herbicide Treatment: Up” value worked out at 80 and the “No. of Lethal Genes Altered” value worked out at 5.
For the compound `CNc1cnn(-c2cccc(C(F)(F)F)c2)c(=O)c1Cl` [Norfluazon, Norflurazon], the stress related metabolites result with Arabidopsis thaliana [1] is listed as “Only a few, if any”.
`COc1nc(C)nc(NC(=O)NS(=O)(=O)c2ccccc2Cl)n1` [Chlorsulfuron]: in the experiment with Arabidopsis thaliana [2], the “Regulated Genes Following Herbicide Treatment: Up” value is on record as 97 and the “No. of Lethal Genes Altered” value is on record as 8. In addition, in experiment [3], the “characteristic symptoms (morphological phenotype)” value is “anthocyanin accumulation in the older leaves accompanied by chlorosis of the newly emerging leaves”.
Turning to `CSc1nnc(C(C)(C)C)c(=O)n1N` [Metribuzin], in experiment [3], the “characteristic symptoms (morphological phenotype)” value is “rapid and widespread leaf necrosis”.

The values above are taken from US20040002842A1, “Methods and systems for analyzing complex biological systems” (priority 2001, published 2004).
